How the values were obtained:
[1] = system: patients having hormone refractory prostate cancer (HRPCa); assay: Time to disease or PSA progression across treatment groups; assay type: in vivo, human; details: intent-to-treat population
Experimental: Patients received treatment with 10 mg (N=89) or 2.5 mg (N=95) of atrasentan or placebo (N=104) until experiencing a clinical event indicative of disease progression such as palliative opiate treatment of new bone or visceral pain, palliative radiation treatment of new bone pain, or new tumor growth symptoms requiring intervention or treatment with chemotherapy.

[2] = system: patients having hormone refractory prostate cancer (HRPCa); assay: Area under the Curve (AUC) analysis of health-related QoL domain scores, one year follow-up assumed; assay type: in vivo, human
Source text: The Kaplan-Meier product limit method may provide biased results if study data are obtained under certain conditions such as staggered entry of subjects into the study and/or incomplete follow-up (Biometrics. 1989; 5:781-795). Thus, a second analysis was implemented to verify that the conclusions derived from the Kaplan-Meier method would remain robust to the length of follow-up. The assumption was that all patients were followed for one year. Patients who discontinued from the study prior to one year of observation had their last observation for all health-related QoL domains carried forward through the remainder of the year. Similarly, patients who had not completed one year of observation had their health-related QoL data carried forward through one year. If the patient experienced a clinical event within the one year period, the last observation was not carried forward. The Area under the Curve (AUC) value for each domain was computed by multiplying the health-related QoL domain score by the respective duration of that score. Finally, AUC values were aggregated across all subjects within each respective treatment group (atrasentan (10 mg), atrasentan (2.5 mg), and placebo). Aggregated AUC values for each domain were compared for differences between treatment groups using a t-test.

## CCCCN(CCCC)C(=O)CN1C[C@H](c2ccc3c(c2)OCO3)[C@@H](C(=O)O)[C@@H]1c1ccc(OC)cc1 [atrasentan, (2R,3R,4S)-2-(4-methoxyphenyl)-4-(1,3-benzodioxol-5-yl)-1-(((N,N-dibutylamino)carbonyl)methyl)pyrrolidine-3-carboxylic acid]
[1]
  differences in either the time to disease or PSA progression across treatment groups: no statistically significant differences
[2]; 2.5 mg, except for dyspnea, social/family, functional well-being, and FACT-P domain scores
  AUC results: significantly improved
[2]; 10 mg vs 2.5 mg
  AUC analysis, responses in the 10 mg and 2.5 mg treatment groups: not statistically differentiable
[2]; Intent to Treat population
  AUC analysis, atrasentan treatment vs placebo groups: no statistical differences
[2]; per-protocol population, every health-related QoL domain score
  AUC analysis vs placebo: strong trends in favor
[2]; physical functioning, social functioning, and pain, p<0.05
  AUC for the health-related QoL domain scores: significantly longer

Source: patent US20030092757A1, “Favorable modulation of health-related quality of life and health-related quality-adjusted time-to-progression of disease in patients with prostate cancer” (priority 2001, published 2003)
